Assay results published in ChEMBL document CHEMBL1201862, “PubChem BioAssay data set” (2004).
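In this assay, cells in 96-well plates receive the compound at five concentrations for 48 hours. Endpoints are linearly interpolated between the surrounding concentrations. The concentration for 50% growth inhibition is given as GI50.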 Activity calls are given as the source filed them. Cut-off read from the data, not from the text of the source: active = GI50 up to about 1.1 µM and inactive = higher.

Legend:
Test in all cases: NCI anticancer screen, dose series, 48 h
[1] = system: HT-29
[2] = system: HCC 2998
[3] = system: HCT-116
[4] = system: OVCAR-3
[5] = system: SNB-19
[6] = system: CCRF-CEM
[7] = system: MCF7
[8] = system: IGROV-1
[9] = system: EKVX
[10] = system: U-251
[11] = system: MDA-MB-231
[12] = system: K562
[13] = system: Hs-578T
[14] = system: MDA-MB-435
[15] = system: NCI-H522
[16] = system: Malme-3M
[17] = system: NCI-H23
[18] = system: SF-268
[19] = system: SW-620
[20] = system: SF-295
[21] = system: RXF 393
[22] = system: UACC-62
[23] = system: SK-MEL-5
[24] = system: SN12C
[25] = system: M14
[26] = system: TK-10
[27] = system: DU-145
[28] = system: UACC-257
[29] = system: RPMI-8226
[30] = system: HL-60
[31] = system: SF-539
[32] = system: KM12
[33] = system: OVCAR-8
[34] = system: COLO 205
[35] = system: SNB-75
[36] = system: MOLT-4
[37] = system: MDA-N
[38] = system: A498
[39] = system: HCT-15
[40] = system: NCI/ADR-RES
[41] = system: OVCAR-4
[42] = system: CAKI-1
[43] = system: NCI-H226
[44] = system: PC-3
[45] = system: LOX IMVI
[46] = system: A549
[47] = system: NCI-H460
[48] = system: HOP-92
[49] = system: SK-OV-3
[50] = system: 786-0
[51] = system: SK-MEL-28
[52] = system: HOP-62
[53] = system: OVCAR-5
[54] = system: ACHN
[55] = system: T47D
[56] = system: BT-549

Compound: COc1cc(C2c3cc4c(cc3OC(NNS(=O)(=O)c3ccc(C)cc3)C2C)OCO4)cc(OC)c1O (stereo not drawn)
- GI50 [1]: 23.4 µM (inactive)
- GI50 [2]: 23.7 µM (inactive)
- GI50 [3]: 9.44 µM (inactive)
- GI50 [4]: 13.7 µM (inactive)
- GI50 [5]: 16.2 µM (inactive)
- GI50 [6]: 7.94 µM (inactive)
- GI50 [7]: 6.24 µM (inactive)
- GI50 [8]: 9.25 µM (inactive)
- GI50 [9]: 11.7 µM (inactive)
- GI50 [10]: 8.17 µM (inactive)
- GI50 [11]: 12.3 µM (inactive)
- GI50 [12]: 4.61 µM (inactive)
- GI50 [13]: 16.9 µM (inactive)
- GI50 [14]: 3.21 µM (inactive)
- GI50 [15]: 25 µM (inactive)
- GI50 [16]: 5.85 µM (inactive)
- GI50 [17]: 9.89 µM (inactive)
- GI50 [18]: 14.8 µM (inactive)
- GI50 [19]: 24.3 µM (inactive)
- GI50 [20]: 3.52 µM (inactive)
- GI50 [21]: 10.5 µM (inactive)
- GI50 [22]: 15.2 µM (inactive)
- GI50 [23]: 9.75 µM (inactive)
- GI50 [24]: 19 µM (inactive)
- GI50 [25]: 15.6 µM (inactive)
- GI50 [26]: 5.41 µM (inactive)
- GI50 [27]: 33.8 µM (inactive)
- GI50 [28]: 5.06 µM (inactive)
- GI50 [29]: 10.1 µM (inactive)
- GI50 [30]: 9.33 µM (inactive)
- GI50 [31]: 6.53 µM (inactive)
- GI50 [32]: 8.81 µM (inactive)
- GI50 [33]: 6.82 µM (inactive)
- GI50 [34]: 19.2 µM (inactive)
- GI50 [35]: 3.61 µM (inactive)
- GI50 [36]: 2.52 µM (inactive)
- GI50 [37]: 5.21 µM (inactive)
- GI50 [38]: 7.98 µM (inactive)
- GI50 [39]: 8.32 µM
- GI50 [40]: 6.68 µM (inactive)
- GI50 [41]: 6.32 µM (inactive)
- GI50 [42]: 12.8 µM (inactive)
- GI50 [43]: 9.16 µM (inactive)
- GI50 [44]: 3.87 µM (inactive)
- GI50 [45]: 12 µM (inactive)
- GI50 [46]: 11.7 µM (inactive)
- GI50 [47]: 5.85 µM (inactive)
- GI50 [48]: 14.5 µM (inactive)
- GI50 [49]: 11.3 µM (inactive)
- GI50 [50]: 16.6 µM (inactive)
- GI50 [51]: 28.9 µM (inactive)
- GI50 [52]: 10.4 µM (inactive)
- GI50 [53]: 33.9 µM (inactive)
- GI50 [54]: 7.98 µM (inactive)
- GI50 [55]: 10.1 µM (inactive)

Compound: C/C(=N\c1ccc(Cl)c(Cl)c1)c1ccncc1
- GI50 [1]: > 100 µM (inactive)
- GI50 [2]: > 10 µM (inactive)
- GI50 [3]: > 100 µM (inactive)
- GI50 [4]: > 100 µM (inactive)
- GI50 [5]: > 100 µM (inactive)
- GI50 [6]: > 100 µM (inactive)
- GI50 [10]: > 100 µM (inactive)
- GI50 [11]: > 100 µM (inactive)
- GI50 [12]: > 100 µM (inactive)
- GI50 [13]: > 100 µM (inactive)
- GI50 [15]: > 100 µM (inactive)
- GI50 [17]: > 100 µM (inactive)
- GI50 [18]: > 100 µM (inactive)
- GI50 [19]: > 100 µM (inactive)
- GI50 [20]: > 100 µM (inactive)
- GI50 [21]: > 100 µM (inactive)
- GI50 [22]: > 100 µM (inactive)
- GI50 [24]: > 100 µM (inactive)
- GI50 [25]: > 100 µM (inactive)
- GI50 [26]: > 100 µM (inactive)
- GI50 [32]: > 100 µM (inactive)
- GI50 [33]: > 100 µM (inactive)
- GI50 [34]: > 100 µM (inactive)
- GI50 [35]: > 100 µM (inactive)
- GI50 [36]: > 100 µM (inactive)
- GI50 [56]: > 100 µM (inactive)
- GI50 [37]: > 100 µM (inactive)
- GI50 [40]: > 100 µM (inactive)
- GI50 [41]: > 100 µM (inactive)
- GI50 [43]: > 100 µM (inactive)
- GI50 [44]: > 100 µM (inactive)
- GI50 [45]: > 100 µM (inactive)
- GI50 [47]: > 100 µM (inactive)
- GI50 [48]: > 100 µM (inactive)
- GI50 [49]: > 100 µM (inactive)
- GI50 [50]: > 100 µM (inactive)
- GI50 [51]: > 100 µM (inactive)
- GI50 [52]: > 100 µM (inactive)
